Test [1] has as its system CFBE41o-cells without WT CFTR complementation (parental cells). The test can be described thus: Short-circuit current (Isc) in Ussing chambers, parental CFBE41o- cells without detectable CFTR expression. It counts as cell-based, human. Particulars: ivacaftor 10 μM after amiloride 100 μM and forskolin 100 nM; parental cells without detectable CFTR expression (FIG. 1A). As for the experimental part:
CFBE41o-cells complemented by stable expression of WT-CFTR (by a lentivirus promoter) are shown in comparison to CFBE41o-cells without WT CFTR complementation (parental cells). *P<0.05, **P<0.005, n=5/condition.
The CFTR potentiator ivacaftor was chosen as an exemplary CFTR activator. The activity of ivacaftor was examined in WT-CFTR expressing cells.
Short-circuit current (Isc) was measured under voltage clamp conditions using MC8 voltage clamps and P2300 Ussing chambers (Physiologic Instruments, San Diego, Calif.) as previously described (2). Monolayers were initially bathed on both sides with identical Ringer's solutions containing (in mM) 115 NaCl, 25 NaHCO3, 2.4 KH2PO4, 1.24 K2HPO4, 1.2 CaCl2, 1.2 MgC2, 10 D-glucose (pH 7.4). Bath solutions were vigorously stirred and gassed with 95%02:5% CO2. Short-circuit current measurements were obtained using an epithelial voltage clamp (Physiologic Instruments). A one-second three-mV pulse was imposed every 10 seconds to monitor resistance calculated using Ohm's law. Where indicated, the mucosal bathing solution was changed to a low Cl-solution containing 1.2 NaCl and 115 Na+ gluconate, and all other components as above. Amiloride (100 μM) was added to block residual Na+ current, followed by the agonists forskolin, ivacaftor, and ATP as indicated (minimum five-min observation at each concentration). […]

Test [2] deals with T1, G551D-CFTR (Homo sapiens, UniProt P13569, G551D). As to conditions: in vitro and in CF subjects harboring the G551D-CFTR defect; reported; cited from earlier work.
The test system of test [3] is HBE cells. Briefly: Airway surface liquid (ASL) depth measurement by confocal microscopy in HBE monolayers. It counts as cell-based, human. As to conditions: ivacaftor 10 μM basolateral, 24 h, confocal (FIGS. 2A, 2B). As for the experimental part: White scale bars designate 10 μm.
Dotted line indicates ASL depth of a panel of CF HBE cells using the exact same method.
The apical surfaces of HBE cells were washed three times and then test compounds added to the basolateral compartment 24 h prior to labeling. Cells were stained with CMFDA (100 μM) in the cell culture medium for 1 hr. Texas red dye (25 μl at 2 mg/ml in Fc70) was added apically and cells allowed to equilibrate 2 h at 37° C. Transwell membranes were placed in sterile glass bottom dish coated with MEM, and imaged with a Carl Zeiss (Peabody, Mass.) confocal microscope using 20× (numerical aperture 0.88, working distance 0.55 mm) air objective lens. Cells were visualized with DIC optics to evaluate cell morphology before initiating fluorescence microscopy. Subsequently, Zscan confocal fluorescent microscopy images were acquired from the top of the ASL through the top of the cell surface. XZ scans were analyzed using Zen2008 software at four ROI per well each located 1 mm from the filter periphery and at each quadrant; 5 estimates of ASL depth were taken equally dispersed across each ROI (7, 9).

In test [4] the target is T1, G551D-CFTR. Set-up: host or cells: CF patients carrying G551D-CFTR (endogenous protein). Particulars: CF patients with G551D-CFTR; reported; cited from earlier work.
Test [5] concerns HBE cells. The test can be described thus: Mucus transport studies (fluorescent beads) in HBE cells. Type of test: cell-based, human. Particulars: ivacaftor 10 μM basolateral, co-stimulated with VIP 30 nM, vs control (FIG. 2C). The procedure: HBE cells were washed with sterile PBS twice 1-2 days prior to addition of PEG beads. Fifty (50) μl of Diamine polyethylene glycol (PEG) coated fluorescent beads (1 μm, Molecular Probes, Eugene, Oreg., 1:500 dilution in PBS) were added to the apical surface by using a microsprayer aerosolizer (Penn-Century Inc Model IA-1B, Wyndmoor, Pa.). Following 24 h incubation, baseline images were obtained and then test compounds added to the basolateral compartment. Mucociliary transport (MCT) images were captured by time-lapse fluorescence imaging at four regions of interest per well located 1 mm from the periphery of the well and at each quadrant using an inverted epifluorescence microscope (Nikon Diaphot, Melvin, N.Y.; 488 nm excitation/519 nm emission). Linear transport rates were computed using Metamoph 7.0 by analyzing 10-15 particles per region (7).

SMILES strings stand for the structures.

T1 sequence (P13569 whole entry G551D): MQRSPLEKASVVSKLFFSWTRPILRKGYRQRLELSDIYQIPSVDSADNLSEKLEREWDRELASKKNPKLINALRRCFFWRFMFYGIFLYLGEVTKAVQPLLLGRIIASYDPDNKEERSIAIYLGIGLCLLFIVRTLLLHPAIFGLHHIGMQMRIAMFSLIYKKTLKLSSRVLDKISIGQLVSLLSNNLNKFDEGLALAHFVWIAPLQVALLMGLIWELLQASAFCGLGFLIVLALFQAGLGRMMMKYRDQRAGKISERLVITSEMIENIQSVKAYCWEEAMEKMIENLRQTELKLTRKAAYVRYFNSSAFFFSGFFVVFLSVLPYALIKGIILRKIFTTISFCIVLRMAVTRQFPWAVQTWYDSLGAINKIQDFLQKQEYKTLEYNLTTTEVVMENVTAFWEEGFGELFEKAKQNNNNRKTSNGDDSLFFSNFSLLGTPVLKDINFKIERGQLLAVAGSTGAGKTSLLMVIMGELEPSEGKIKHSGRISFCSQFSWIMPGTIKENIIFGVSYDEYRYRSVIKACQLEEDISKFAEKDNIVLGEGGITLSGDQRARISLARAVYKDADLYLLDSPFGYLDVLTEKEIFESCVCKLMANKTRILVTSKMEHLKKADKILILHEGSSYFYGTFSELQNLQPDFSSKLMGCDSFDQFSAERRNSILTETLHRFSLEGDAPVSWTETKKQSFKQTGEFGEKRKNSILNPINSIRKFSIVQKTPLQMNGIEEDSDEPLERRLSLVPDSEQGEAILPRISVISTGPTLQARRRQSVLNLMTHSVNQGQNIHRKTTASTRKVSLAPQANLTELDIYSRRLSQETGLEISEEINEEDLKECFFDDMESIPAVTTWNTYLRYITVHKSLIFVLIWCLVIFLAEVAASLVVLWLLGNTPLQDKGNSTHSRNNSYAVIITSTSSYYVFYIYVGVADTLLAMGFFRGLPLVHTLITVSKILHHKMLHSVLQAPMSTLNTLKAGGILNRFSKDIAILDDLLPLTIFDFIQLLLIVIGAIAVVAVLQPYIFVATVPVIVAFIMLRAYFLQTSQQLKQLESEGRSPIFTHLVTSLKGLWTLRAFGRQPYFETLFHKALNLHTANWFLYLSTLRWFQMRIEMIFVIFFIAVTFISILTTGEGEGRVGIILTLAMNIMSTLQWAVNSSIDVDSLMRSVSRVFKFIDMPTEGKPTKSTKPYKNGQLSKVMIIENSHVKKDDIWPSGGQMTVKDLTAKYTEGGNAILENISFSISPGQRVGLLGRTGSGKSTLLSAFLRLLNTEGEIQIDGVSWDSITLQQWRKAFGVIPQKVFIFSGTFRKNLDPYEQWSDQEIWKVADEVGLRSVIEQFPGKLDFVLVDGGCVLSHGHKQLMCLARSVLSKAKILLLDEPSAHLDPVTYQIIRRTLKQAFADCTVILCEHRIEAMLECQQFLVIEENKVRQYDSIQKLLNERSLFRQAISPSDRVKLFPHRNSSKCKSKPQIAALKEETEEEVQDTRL

With `CC(C)(C)c1cc(C(C)(C)C)c(NC(=O)c2c[nH]c3ccccc3c2=O)cc1O` [ivacaftor], the “anion transport (Isc)” value in test [1] is given as “no activity”. Also, at G551D-CFTR [2], the “cAMP mediated ion transport activity of CFTR encoding the gating mutation G551D-CFTR” value was “significantly augment”. In addition, the ASL depth result with HBE cells [3] is given as “enhanced”. Also, at G551D-CFTR [4], the “measures of CFTR activity” value was “improved” and the pulmonary function entry is reported as “enhanced”. The “mucus transport (MCT)” value in the test on HBE cells [5] is given as “markedly increased above baseline”.

The values above are taken from patent publication US10300052B2, “Methods for increasing CFTR activity” (THE UAB RESEARCH FOUNDATION, priority 2012, dated 2019).
